According to PMC10743905, “Design, Synthesis, and In Vitro and In Vivo Bioactivity Studies of Hydrazide–Hydrazones of 2,4-Dihydroxybenzoic Acid” (International Journal of Molecular Sciences, 2023):
Entries after “also recorded” stand apart in the source; their conditions may differ.

Columns and labels:
HEK-293 = assay: MTT cytotoxicity assay, reference line; type: cell-based; conditions: Homo sapiens, HEK293, 24 h incubation, non-tumor reference line
Description: (§1) The in vitro studies were performed on the reference line HEK-293 (human embryonic kidney cells, ATCC® CRL-1573™) and […] human cancer cell lines: 769-P (adenocarcinoma, renal cells, ATCC® CRL-1933™) and HepG2 (carcinoma, hepatocellular, ATCC® HB-8065™), H1563 (adenocarcinoma, non-smallcell lung cancer, ATCC® CRL-5875™), LN-229 (glioblastoma, ATCC® CRL-2611™). Cells from the 769-P and H1563 cell lines were cultured in RPMI-1640 growth medium (PAN Biotech GmbH, Aidenbach, Bayern, Germany), cells from the HEK-293 and HepG2 cell lines were cultured in EMEM growth medium (PAN Biotech GmbH, Aidenbach, Bayern, Germany), and cells from the LN-229 cell line were cultured in DMEM growth medium (PAN Biotech GmbH, Aidenbach, Bayern, Germany) in sterile 75 cm^2 culture phalcones. Fetal bovine serum (PAN Biotech GmbH, Aidenbach, Bayern, Germany) at 10% of growth medium and antibiotics (Sigma-Aldrich, Poland) (2.5 µg/mL amphotericin B, 100 µg/mL penicillin, and 100 µg/mL streptomycin) were added to all media. Cells were cultured at 37 °C in an incubator with 5% CO2 flow until a cell layer was formed. Following this, the medium was removed, and the cells were washed with 0.25% trypsin solution with 2.21 mM EDTA (Corning Incorporated, Corning, NY, USA) in order to completely remove fetal bovine serum containing trypsin inhibitor. Finally, 6 mL of complete growth medium was added, and the cells were aspirated by gentle pipetting.
(§2) The determination of inhibitory concentration (IC50) in the HEK-293, 769-P, HepG2, H1563, and LN-229 cell cultures for selected hydrazide–hydrazones was performed using the MTT assay procedure. This test was performed according to the MTT Assay ECVAM n°17 protocol manual prepared by the European Centre for the Validation of Alternative Methods (ECVAM), an entity that aims to reduce in vivo testing in favor of in vitro and in silico methods. To 96-well sterile plates, 100 μL of cell suspensions, prepared in the appropriate medium at a concentration of 3 × 10^5 cells/mL, was added using a multichannel pipette. To achieve cell adhesion to the bottom of the plates, cells were incubated for 24 h at 37 °C with 5% CO2 flow and 90% humidity. […] After this time, all medium was removed, 100 μL of DMSO (Corning Incorporated, Corning, NY, USA) was added to each well, and absorbance measurements were performed at 550 nm using a Power Weave xs spectrophotometric microplate reader (BioTek, Winooski, VT, USA). The decrease in absorbance is equivalent to the decrease in MTT formazan production, which is due to the decrease in mitochondrial dehydrogenase activity and indicates a cytotoxic effect from the tested substances. Cell viability is expressed as a percentage as the ratio of the absorbance of test substance-treated cells to the untreated cells. […]

HepG2 = assay: MTT antiproliferative assay; type: cell-based; conditions: Homo sapiens, 24 h incubation, hepatocellular carcinoma
Description: as §1, §2

Danio rerio embryos = assay: Fish Embryo Acute Toxicity (FET) test, OECD No. 236; conditions: for toxicity for zebrafish embryos and larvae (in words): FET test, based on LC50; for heart rate vs negative (E3) and solvent (1% DMSO) controls: zebrafish larvae, 96 h; for percentage of non-lethal morphological abnormalities: zebrafish larvae 96 hpf
Description: Wild-type AB strain zebrafish (Danio rerio) were housed in the Experimental Medicine Centre of Medical University of Lublin (Lublin, Poland), where all the experimental procedures on embryos and larvae were carried out. The animals were kept on a recirculating water supply at 26 ± 1 °C and a 10/14 dark–light cycle, and they were fed with artemia and commercial feed. Danio rerio embryos were obtained from females between 4 and 15 months of age. […] In order to avoid genetic bias in the study, eggs were randomly collected from at least three breeding groups, rinsed, and placed in Petri dishes in the cultured medium, which for Danio rerio is E3 solution. […] In accordance with the legislation of the European Union and Poland, the experiments performed on the earliest life-stages of Danio rerio until 120 h post-fertilization (120 hpf), not defined as protected, are not subject to regulations for animal experimentation.
They address the testing of chemicals using the Fish Embryo Acute Toxicity (FET) test with the species Danio rerio.
Immediately after fertilization, eggs were placed in sterile 24-well plates and exposed for 96 h to at least five concentrations of the test chemical, ranging from 1 to 500 µM and prepared ex tempore on each day of exposure, according to the principle of one egg per well and one concentration per plate. In each plate, 20 wells were filled with the solutions of the tested substance, and 4 wells of the last column were a negative internal control with E3 medium. Each well was filled with 2 mL of solution. Positive control plates were also prepared according to this scheme with 4 mg/L of 3,4-dichloroaniline (Sigma-Aldrich, Poznań, Poland) and a negative control with E3, and a negative solvent control with 1% DMSO, which was used as a solvent for the tested substances. At four time points, microscopic observations were made every 24 h. As indicators of mortality (so-called terminal observations; when at least one of these occurs, embryonic death is declared), the following were recorded: the coagulation of embryos, a lack of somite formation, a lack of detachment of the tail from the yolk sac and a lack of a heartbeat, which was observed from the 48th hour of the study. To confirm the absence of a heartbeat, a microscopic observation was conducted at 80× magnification for one minute. Then, the solutions of the tested chemicals, to maintain their constant composition throughout the test, were replaced with fresh ones, and the plates were incubated for another 24 h in an incubator at 26 ± 1 °C. […] In addition, a quantitative and qualitative summary of the morphological and physiological abnormalities that occurred in the tested Danio rerio embryos and larvae was also made. These included yolk sac edema, pericardial edema, spinal flexure, head deformities, tail deformities, developmental delay defined as a lack of hatching success for 96 hpf larvae, and also bradycardia.
Regression analysis was performed with Excel, and the above-mentioned values were obtained from the linear type of regression analysis. […] The results obtained from the heart rate study of 96 hpf zebrafish larvae were subjected to statistical analysis using one-way analysis of variance (ANOVA) and a post hoc Bonferroni test. The significance level was taken as p < 0.05.

[1] = zebrafish, 500 µM (150.62 mg/L)

Structure (SMILES) | IC50 (HEK-293) | IC50 (HepG2) | toxicity for zebrafish embryos and larvae (in words) (Danio rerio embryos) | percentage of non-lethal morphological abnormalities (Danio rerio embryos) | also measured
O=C(N/N=C/c1ccccc1F)c1ccc(O)cc1O [Compound 24, N-[(2-fluorophenyl)methylidene]-2,4-dihydroxybenzohydrazide] | 387 µM | > 500 µM | nontoxic |  | heart rate vs negative (E3) and solvent (1% DMSO) controls (Danio rerio embryos; 50 µM (13.71 mg/L)): no changes; heart rate vs negative (E3) and solvent (1% DMSO) controls (Danio rerio embryos; 100 µM (27.42 mg/L), p < 0.01): decrease in heartbeat (bradycardia); heart rate vs negative (E3) and solvent (1% DMSO) controls (Danio rerio embryos; 500 µM (137.12 mg/L), p < 0.001): the reduction was very statistically significant; percentage of pericardial edema (Danio rerio embryos; zebrafish, 100 µM (27.42 mg/L)): 65%; percentage of pericardial edema (Danio rerio embryos; zebrafish, 500 µM (137.12 mg/L)): 85%
O=C(N/N=C/c1ccc([N+](=O)[O-])cc1)c1ccc(O)cc1O [Compound 21, 2,4-dihydroxy-N-[(4-nitrophenyl)methylidene]benzohydrazide] |  | 7.81 µM | moderate toxicity |  | percentage of development delay (Danio rerio embryos; [1]): 10%; percentage of tail malformation (Danio rerio embryos; [1]): 55%
O=C(N/N=C/c1ccccc1[N+](=O)[O-])c1ccc(O)cc1O [Compound 19, 2,4-dihydroxy-N-[(2-nitrophenyl)methylidene]benzohydrazide] |  | > 500 µM | nontoxic; also recorded: negligible toxicity | ≤ 25% | 
O=C(N/N=C/c1ccccc1Cl)c1ccc(O)cc1O [Compound 22, N-[(2-chlorophenyl)methylidene]-2,4-dihydroxybenzohydrazide] | 315 µM |  | quite toxic |  | 
O=C(N/N=C/c1cccc([N+](=O)[O-])c1)c1ccc(O)cc1O [Compound 20, 2,4-dihydroxy-N-[(3-nitrophenyl)methylidene]benzohydrazide] | 13400 µM | > 500 µM | nontoxic | ≤ 25% | 
O=C(N/N=C/c1ccccc1Br)c1ccc(O)cc1O [Compound 23, N-[(2-bromophenyl)methylidene]-2,4-dihydroxybenzohydrazide] | 91800 µM |  | quite toxic |  | percentage of yolk sac edema (Danio rerio embryos; zebrafish embryos and larvae, 100 µM (35.52 mg/L)): 80%
